The values below are quoted from earlier work in patent publication US11723873B2, “Oral dosage form of ticagrelor and preparation method thereof” (Elite Pharmaceutical Solution Inc., priority 2021, dated 2023).

For series [1] the following is noted: in vivo.
For series [2] the following is noted: room temperature, crystalline powder.

In the case of `CCCSc1nc(N[C@@H]2C[C@H]2c2ccc(F)c(F)c2)c2nnn([C@@H]3C[C@H](O)[C@@H](O)[C@H]3O)c2n1` [AR-C124910XX], in series [1], the “Tmax range of formation of the major circulating metabolite” value is 1.5 to 5.0 h and the “median time (Tmax) of formation of the major circulating metabolite” value is “approximately 2.5 hours”.
As for `CCCSc1nc(N[C@@H]2C[C@H]2c2ccc(F)c(F)c2)c2nnn([C@@H]3C[C@H](OCCO)[C@@H](O)[C@H]3O)c2n1` [ticagrelor, (1S,2S,3R,5S)-3-[7-{[(1R,2S)-2-(3,4-difluorophenyl)cyclopropyl]amino}-5-(propylthio)-3H-[1,2,3]-triazolo[4,5-d]pyrimidin-3-yl]-5-(2-hydroxyethoxy)cyclopentane-1,2-diol], the aqueous solubility result in series [2] is recorded as “approximately 10 μg/mL”.
